{
  "source": "the supplement of paper PMC11061612",
  "key": {"Carboplatin": {"compound": "C1CC(C1)(C(=O)[O-])C(=O)[O-].N.N.[Pt+2] [Carboplatin]", "details": "max 10 µM", "in_short": "(§1)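 Plates with 1536 wells received cancer cell lines in 7.5 μl of DMEM/F12 or RPMI containing 10% FBS. After 24 hours at 37°C and 5% CO2, cells were dosed for 72 hours with final DMSO typically 0.2%, and viability was read by CellTiter-Glo 2.0 luminescence scaled between blank-well and DMSO-well means. The single-agent IC50 was taken from a logistic fit of the dose responses made with a non-linear mixed effects model, that logistic curve having two parameters.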"}, "AZD5363": {"compound": "C1CN(CCC1(C(=O)N[C@@H](CCO)C2=CC=C(C=C2)Cl)N)C3=NC=NC4=C3C=CN4 [AZD5363]", "details": "max 10 µM", "in_short": "as §1"}, "AZD1775": {"compound": "C=CCn1c(=O)c2cnc(Nc3ccc(N4CCN(C)CC4)cc3)nc2n1-c1cccc(C(C)(C)O)n1 [AZD1775]", "details": "max 3 µM", "in_short": "as §1"}, "Trametinib": {"compound": "CC(=O)Nc1cccc(-n2c(=O)n(C3CC3)c(=O)c3c(Nc4ccc(I)cc4F)n(C)c(=O)c(C)c32)c1 [Trametinib]", "details": "max 1 µM", "in_short": "as §1"}, "Paclitaxel": {"compound": "CC(=O)O[C@H]1C(=O)[C@@]2(C)[C@H]([C@H](OC(=O)c3ccccc3)[C@]3(O)C[C@H](OC(=O)[C@H](O)[C@@H](NC(=O)c4ccccc4)c4ccccc4)C(C)=C1C3(C)C)[C@]1(OC(C)=O)CO[C@@H]1C[C@@H]2O [Paclitaxel]", "details": "max 3 µM", "in_short": "as §1"}, "Palbociclib": {"compound": "CC(=O)c1c(C)c2cnc(Nc3ccc(N4CCNCC4)cn3)nc2n(C2CCCC2)c1=O [Palbociclib]", "details": "max 10 µM", "in_short": "as §1"}, "AZD1390": {"compound": "CC(C)n1c(=O)n(C)c2cnc3cc(F)c(-c4ccc(OCCCN5CCCCC5)nc4)cc3c21 [AZD1390]", "details": "max 0.3 µM", "in_short": "as §1"}, "Venetoclax": {"compound": "CC1(C)CCC(CN2CCN(c3ccc(C(=O)NS(=O)(=O)c4ccc(NCC5CCOCC5)c([N+](=O)[O-])c4)c(Oc4cnc5[nH]ccc5c4)c3)CC2)=C(c2ccc(Cl)cc2)C1 [Venetoclax]", "details": "max 1 µM", "in_short": "as §1"}, "Dasatinib": {"compound": "CC1=C(C(=CC=C1)Cl)NC(=O)C2=CN=C(S2)NC3=CC(=NC(=N3)C)N4CCN(CC4)CCO [Dasatinib]", "details": "max 2 µM", "in_short": "as §1"}, "SG3199": {"compound": "CC1=CN2[C@@H](C1)C=NC3=CC(=C(C=C3C2=O)OC)OCCCCCOC4=C(C=C5C(=C4)N=C[C@@H]6CC(=CN6C5=O)C)OC [SG3199]", "details": "max 0.001 µM", "in_short": "as §1"}, "AZD2811": {"compound": "CCN(CCO)CCCOc1ccc2c(Nc3cc(CC(=O)Nc4cccc(F)c4)[nH]n3)ncnc2c1 [AZD2811]", "details": "max 1 µM", "in_short": "as §1"}, "SN-38": {"compound": "CCc1c2c(nc3ccc(O)cc13)-c1cc3c(c(=O)n1C2)COC(=O)[C@]3(O)CC [SN-38]", "details": "max 0.3 µM", "in_short": "as §1"}, "AZD0156": {"compound": "CN(C)CCCOc1ccc(-c2ccc3ncc4c(c3c2)n(C2CCOCC2)c(=O)n4C)cn1 [AZD0156]", "details": "max 3 µM", "in_short": "as §1"}, "AZD4320": {"compound": "CN(CC[C@H](CSC1=CC=CC=C1)NC2=C(C=C(C=C2)S(=O)(=O)NC(=O)C3=CC=C(C=C3)N4CCC(CC4)[C@H](C5=CC=CC=C5C6=CC=C(C=C6)Cl)O)S(=O)(=O)C(F)(F)F)CCO [AZD4320]", "details": "max 1 µM", "in_short": "as §1"}, "Alisertib": {"compound": "COc1cc(Nc2ncc3c(n2)-c2ccc(Cl)cc2C(c2c(F)cccc2OC)=NC3)ccc1C(=O)O [Alisertib]", "details": "max 10 µM", "in_short": "as §1"}, "Etoposide": {"compound": "COc1cc([C@@H]2c3cc4c(cc3[C@@H](O[C@@H]3O[C@@H]5CO[C@@H](C)O[C@H]5[C@H](O)[C@H]3O)[C@H]3COC(=O)[C@H]23)OCO4)cc(OC)c1O [Etoposide]", "details": "max 10 µM", "in_short": "as §1"}, "Gefitinib": {"compound": "COc1cc2ncnc(Nc3ccc(F)c(Cl)c3)c2cc1OCCCN1CCOCC1 [Gefitinib]", "details": "max 10 µM", "in_short": "as §1"}, "Prexasertib": {"compound": "COc1cccc(OCCCN)c1-c1cc(Nc2cnc(C#N)cn2)n[nH]1 [Prexasertib]", "details": "max 1 µM", "in_short": "as §1"}, "Doxorubicin": {"compound": "COc1cccc2c1C(=O)c1c(O)c3c(c(O)c1C2=O)C[C@@](O)(C(=O)CO)C[C@@H]3O[C@H]1C[C@H](N)[C@H](O)[C@H](C)O1 [Doxorubicin]", "details": "max 1 µM", "in_short": "as §1"}, "AZD5153": {"compound": "COc1nnc2ccc(N3CCC(c4ccc(OCCN5CCN(C)C(=O)[C@H]5C)cc4)CC3)nn12 [AZD5153]", "details": "max 1 µM", "in_short": "as §1"}, "Lapatinib": {"compound": "CS(=O)(=O)CCNCc1ccc(-c2ccc3ncnc(Nc4ccc(OCc5cccc(F)c5)c(Cl)c4)c3c2)o1 [Lapatinib]", "details": "max 10 µM", "in_short": "as §1"}, "AZD8186": {"compound": "C[C@@H](Nc1cc(F)cc(F)c1)c1cc(C(=O)N(C)C)cc2c(=O)cc(N3CCOCC3)oc12 [AZD8186]", "details": "max 10 µM", "in_short": "as §1"}, "Crizotinib": {"compound": "C[C@@H](Oc1cc(-c2cnn(C3CCNCC3)c2)cnc1N)c1c(Cl)ccc(F)c1Cl [Crizotinib]", "details": "max 10 µM", "in_short": "as §1"}, "Savolitinib": {"compound": "C[C@@H](c1ccc2nccn2c1)n1nnc2ncc(-c3cnn(C)c3)nc21 [Savolitinib]", "details": "max 1 µM", "in_short": "as §1"}, "AZD6738": {"compound": "C[C@@H]1COCCN1C2=NC(=NC(=C2)C3(CC3)[S@](=N)(=O)C)C4=C5C=CNC5=NC=C4 [AZD6738]", "details": "max 10 µM", "in_short": "as §1"}, "AZD5991": {"compound": "Cc1c2c(nn1C)CSCc1cc(n(C)n1)CSc1cc(c3ccccc3c1)OCCCc1c(C(=O)O)n(C)c3c-2c(Cl)ccc13 [AZD5991]", "details": "max 1 µM", "in_short": "as §1"}, "AZD7648": {"compound": "Cc1cc2ncnn2cc1Nc1ncc2c(n1)n(C1CCOCC1)c(=O)n2C [AZD7648]", "details": "max 10 µM", "in_short": "as §1"}, "Taselisib": {"compound": "Cc1nc(-c2cn3c(n2)-c2ccc(-c4cnn(C(C)(C)C(N)=O)c4)cc2OCC3)n(C(C)C)n1 [Taselisib]", "details": "max 10 µM", "in_short": "as §1"}, "Selumetinib": {"compound": "Cn1cnc2c(F)c(Nc3ccc(Br)cc3Cl)c(C(=O)NOCCO)cc21 [Selumetinib]", "details": "max 10 µM", "in_short": "as §1"}, "SRA737": {"compound": "N#Cc1cnc(Nc2cc(NC[C@H]3CNCCO3)c(C(F)(F)F)cn2)cn1 [SRA737]", "details": "max 10 µM", "in_short": "as §1"}, "MK-2206": {"compound": "NC1(c2ccc(-c3nc4ccn5c(=O)[nH]nc5c4cc3-c3ccccc3)cc2)CCC1 [MK-2206]", "details": "max 10 µM", "in_short": "as §1"}, "Gemcitabine": {"compound": "Nc1ccn([C@@H]2O[C@H](CO)[C@@H](O)C2(F)F)c(=O)n1 [Gemcitabine]", "details": "max 0.3 µM", "in_short": "as §1"}, "[1]": {"compound": "O=C(Nc1ccc2[nH]nc(-c3ccncc3)c2c1)[C@@H]1CCN(CC(=O)N2CCN(c3ccc(-c4ncccn4)cc3)CC2)C1", "details": "max 5 µM", "in_short": "as §1"}, "Olaparib": {"compound": "O=C(c1cc(Cc2n[nH]c(=O)c3ccccc23)ccc1F)N1CCN(C(=O)C2CC2)CC1 [Olaparib]", "details": "max 10 µM", "in_short": "as §1"}, "5-Fluorouracil": {"compound": "O=c1[nH]cc(F)c(=O)[nH]1 [5-Fluorouracil]", "details": "max 20 µM", "in_short": "as §1"}},
  "data": [
    {"cell line": "ZR-75-30 (Breast Carcinoma)", "values": [
      {"measurement": "IC50, cell viability 72 h", "setting": "Carboplatin", "value": "> 10", "unit": "µM"},
      {"measurement": "IC50, cell viability 72 h", "setting": "AZD5363", "value": "> 10", "unit": "µM"},
      {"measurement": "IC50, cell viability 72 h", "setting": "AZD1775", "value": "> 3", "unit": "µM"},
      {"measurement": "IC50, cell viability 72 h", "setting": "Trametinib", "value": "> 1", "unit": "µM"},
      {"measurement": "IC50, cell viability 72 h", "setting": "Paclitaxel", "value": "> 3", "unit": "µM"},
      {"measurement": "IC50, cell viability 72 h", "setting": "Palbociclib", "value": "> 10", "unit": "µM"},
      {"measurement": "IC50, cell viability 72 h", "setting": "AZD1390", "value": "> 0.3", "unit": "µM"},
      {"measurement": "IC50, cell viability 72 h", "setting": "Venetoclax", "value": "> 1", "unit": "µM"},
      {"measurement": "IC50, cell viability 72 h", "setting": "Dasatinib", "value": "> 2", "unit": "µM"},
      {"measurement": "IC50, cell viability 72 h", "setting": "SG3199", "value": "> 0.001", "unit": "µM"},
      {"measurement": "IC50, cell viability 72 h", "setting": "AZD2811", "value": "> 1", "unit": "µM"},
      {"measurement": "IC50, cell viability 72 h", "setting": "SN-38", "value": "> 0.3", "unit": "µM"},
      {"measurement": "IC50, cell viability 72 h", "setting": "AZD0156", "value": "> 3", "unit": "µM"},
      {"measurement": "IC50, cell viability 72 h", "setting": "AZD4320", "value": "> 1", "unit": "µM"},
      {"measurement": "IC50, cell viability 72 h", "setting": "Alisertib", "value": "> 10", "unit": "µM"},
      {"measurement": "IC50, cell viability 72 h", "setting": "Etoposide", "value": "> 10", "unit": "µM"},
      {"measurement": "IC50, cell viability 72 h", "setting": "Gefitinib", "value": "> 10", "unit": "µM"},
      {"measurement": "IC50, cell viability 72 h", "setting": "Prexasertib", "value": "> 1", "unit": "µM"},
      {"measurement": "IC50, cell viability 72 h", "setting": "Doxorubicin", "value": "> 1", "unit": "µM"},
      {"measurement": "IC50, cell viability 72 h", "setting": "AZD5153", "value": "> 1", "unit": "µM"},
      {"measurement": "IC50, cell viability 72 h", "setting": "Lapatinib", "value": 0.869, "unit": "µM"},
      {"measurement": "IC50, cell viability 72 h", "setting": "AZD8186", "value": "> 10", "unit": "µM"},
      {"measurement": "IC50, cell viability 72 h", "setting": "Crizotinib", "value": "> 10", "unit": "µM"},
      {"measurement": "IC50, cell viability 72 h", "setting": "Savolitinib", "value": "> 1", "unit": "µM"},
      {"measurement": "IC50, cell viability 72 h", "setting": "AZD6738", "value": "> 10", "unit": "µM"},
      {"measurement": "IC50, cell viability 72 h", "setting": "AZD5991", "value": "> 1", "unit": "µM"},
      {"measurement": "IC50, cell viability 72 h", "setting": "AZD7648", "value": "> 10", "unit": "µM"},
      {"measurement": "IC50, cell viability 72 h", "setting": "Taselisib", "value": 9.52, "unit": "µM"},
      {"measurement": "IC50, cell viability 72 h", "setting": "Selumetinib", "value": "> 10", "unit": "µM"},
      {"measurement": "IC50, cell viability 72 h", "setting": "SRA737", "value": "> 10", "unit": "µM"},
      {"measurement": "IC50, cell viability 72 h", "setting": "MK-2206", "value": "> 10", "unit": "µM"},
      {"measurement": "IC50, cell viability 72 h", "setting": "Gemcitabine", "value": "> 0.3", "unit": "µM"},
      {"measurement": "IC50, cell viability 72 h", "setting": "[1]", "value": "> 5", "unit": "µM"},
      {"measurement": "IC50, cell viability 72 h", "setting": "Olaparib", "value": "> 10", "unit": "µM"},
      {"measurement": "IC50, cell viability 72 h", "setting": "5-Fluorouracil", "value": "> 20", "unit": "µM"}
    ]}
  ]
}
